Experimental data as given in PMC13198932, “Pyrazolone-based ERO1 inhibitors in ERO1-driven triple-negative breast cancer and SEPN1-related myopathy: Structure–activity relationship and therapeutic potential” (Pharmacological research, 2025).

Assays:
[1] = test system: E0771 tumors; assay: E0771 breast tumor model in syngeneic C57BL/6 J mice (tumor size, VEGFA ELISA, flow cytometry); type: in vivo; settings: 10 mg/kg i.p. once daily for 10 days
Experimental: A 1:1 mixture of polyethylene glycol 400 (PEG400) (Merck, 8.17003.1000) and Cremophor EL (Sigma, C5135–500G) was used to dissolve I29 at a concentration of 10 mM and served as the vehicle control. Initially, I29 was suspended in PEG400, after which Cremophor EL was added to the solution. The mixture was then heated to 80 °C until the compound was fully dissolved. Both the compound and vehicle were diluted 1:10 in physiological saline immediately prior to administration to mice at a dose of 10 mg/kg.
E0771 cells (1 × 10^6) were injected subcutaneously into both flanks of 12 female C57BL/6 J mice. Once the primary tumors reached a volume of 100–200 mm^3 (palpable), the mice were randomized into two groups and treated with either I29 or vehicle (Cremophor and PEG400). I29 was administered intraperitoneally (i.p.) once daily for 10 consecutive days at a dose of 10 mg/kg. Twenty-four hours after the final injection, the mice were euthanized. Tumors were excised, weighed, and processed for flow cytometry analysis of immune cells and immune checkpoints, including PD-1 and PD-L1, as well as for VEGFA quantification by ELISA.
The procedure was described in detail in [29]. Briefly, primary subcutaneous tumors derived from E0771 cells were minced into small fragments and enzymatically digested with 0.5 mg/mL Collagenase IV (Sigma) and 40 μg/mL DNase I in RPMI 1640 medium for 30 min at 37°C. The resulting cells were resuspended in HBSS containing 0.5 % FBS and incubated at 4°C for 20 min with the following antibodies (BioLegend): CD45 BV650 (clone 104; 0.6/100), CD11b PerCP-Cy5.5 (clone M1/70; 0.3/100), Ly6C BV421 (clone HK1.4; 0.6/100), Ly6G AF700 (clone 1A8; 0.6/100), F4/80 PE-Cy7 (clone BM8; 0.3/100), PD-L1 APC (clone 10 F.9G2; 1/100), CD3 BV605 (clone 145–2C11; 0.6/100), CD4 AF700 (clone GK1.5; 0.6/100), CD8 BV785 (clone 53–6.7; 0.6/100), and PD1 (clone 29.F1A12; 0.6/100). Cell viability was determined using the LIVE/DEAD™ Fixable Near IR Viability Kit (Invitrogen, L34981). Samples were acquired using a Cytoflex LX flow cytometer with CytExpert software, and data were analyzed with Kaluza 2.0 software (Beckman Coulter).
Within the CD45 + leukocyte population, monocytic myeloid-derived suppressor cells (M) MDSCs (CD11b+Ly6G−Ly6Chi), polymorphonuclear granulocytic (PMN−) MDSCs (CD11b+Ly6G+Ly6Clo), and tumor-associated macrophages (TAMs; CD11b+Ly6Clo/−F4/80 +) were identified. Total T lymphocytes (CD3 +) were gated within CD45 + population, and frequencies of CD3 +CD4 + and CD3 +CD8 +T cells subsets were quantified. PD1 expression was evaluated on CD4 + and CD8 + T cells, while PD-L1 expression was assessed on MDSCs and TAMs. Expression levels are reported as geometric mean fluorescence intensity (gMFI).
For VEGFA measurements in E0771 tumors, tumors were weighed, and 50 mg of each was isolated and lysed in PBS containing protease inhibitors but no EDTA. Following homogenization, samples were frozen overnight and then subjected to repeated freeze-thaw cycles the next day. Insoluble debris was removed by high-speed centrifugation, and the supernatant was quantified using the BCA assay. A total of 190 μg of protein was then analyzed using a mouse VEGF Quantikine ELISA Kit (MMV00, R&D Systems).

[2] = test system: WT and SEPN1 KO mice; assay: Whole-body plethysmography in WT and SEPN1 KO mice; type: in vivo; settings: 10 mg/kg i.p. once daily for five days
Experimental: Wild-type (WT) and SEPN1 knockout (KO) C57BL/6 male mice, aged 4 months, were fed either a selenium-deficient diet or a diet containing 0,4 ppm selenium for four months (cod. 10105101, Charles River). Experimental protocols followed D.lgs. 26/2014 (authorization 19/2008-A; authorization 465/2023-PR to E. Zito). All animal experiments were performed in accordance with the ARRIVE guidelines and complied with relevant national and international laws, regulations, and policies governing the care and use of laboratory animals, including Italian law.
Wild-type (WT) and SEPN1 knockout (KO) male mice, previously fed a selenium-deficient diet or a diet containing 0.4 ppm selenium, were randomized to receive intraperitoneal (i.p.) injections of I29 or vehicle alone. Treatments were administered once daily for five consecutive days at a dose of 10 mg/kg. Twenty-four hours after the final injection, mice underwent whole-body plethysmography (Whole Body Plethysmography by emkaTechnologies) under baseline conditions in ambient air to assess several respiratory parameters reflecting ventilatory efficiency. In particular, tidal volume (TV), breathing frequency (f), peak inspiratory flow (PIF), and mean inspiratory flow (TV/inspiratory time [TI]) were measured. Both intra- and inter-subject coefficients of variation (CV) for TV and f were also computed.

[3] = test system: WT and SEPN1 KD C2C12 muscle cells; assay: Real-time quantitative RT-PCR of ER stress markers BIP, CHOP, ERO1; type: cell-based; settings: 2 μM
Text: RNA from WT and SEPN1KD C2C12 was reverse-transcribed and analyzed using the Applied Biosystems’ real-time PCR System and the ΔΔCt method. Relative gene expression in cells was normalized to Actin mRNA levels as in [27].

[4] = set-up: method as in PMID 37132383; settings: cited from earlier work
[5] = selenium-supplemented (0.4 ppm) SEPN1 KO mice

| Compound | tolerability ([1]; E0771 tumor-bearing mice) | PD-1 expression on CD4+ and CD8+ T cells ([1]; flow cytometry of tumors) | PD-L1 expression in monocytic myeloid-derived suppressor cells (M-MDSCs) ([1]; flow cytometry of tumors) | VEGFA levels in tumors (ELISA) ([1]; vs vehicle) | tumor volume ([1]; vs vehicle) | tumor weight (ex vivo) ([1]; vs vehicle) | respiratory function ([2]; SEPN1 KO mice) | respiratory parameters ([2]; WT mice, independent of selenium content in the diet) | variability in tidal volume (CV TV) ([2]; selenium-deficient SEPN1 KO mice) | variability in respiratory frequency (CV f) [2, 5] | variability in tidal volume (CV TV) [2, 5] | CHOP expression [3] | aqueous solubility [4] |
| --- | --- | --- | --- | --- | --- | --- | --- | --- | --- | --- | --- | --- | --- |
| O=C1/C(=C/c2ccc(-c3ccccc3)o2)C(C(F)(F)F)=NN1c1ccccc1F [I29] | well tolerated, with no overt signs of toxicity or weight loss observed | remained unchanged | statistically significant reduction | reduced | no significant differences | slight reduction in tumor weight | failed to improve respiratory function | mild improvement in respiratory parameters | increased CV TV | concomitant reduction in CV f | consistently reduced CV TV | downregulate CHOP expression | – |
| O=C(O)c1cc(N2N=C(C(F)(F)F)/C(=C\c3ccc(-c4ccccc4)o3)C2=O)ccc1Cl [EN460, reference compound] | – | – | – | – | – | – | – | – | – | – | – | – | poor aqueous solubility |
